Counter-ions that a name gives are not always drawn. Like-named read-outs stand apart in the source and are kept apart here.
Tests used:
[1] = test system: Pseudomonas aeruginosa 9027; experiment: In Vitro Anti-Bacterial Activity Test (MIC, agar dilution); format: cell-based; conditions: Muller-Hinton agar, 37° C., 18 hours, read-out: MIC
In short: (§1)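 Compounds were diluted into Muller-Hinton agar plates, which were inoculated with 10^7 C.F.U./ml of each strain. Plates were kept at 37° C. for 18 hours before growth was read.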

Escherichia coli DC2 = experiment: as above; format: cell-based; conditions: Escherichia coli, DC2, 18 h
In short: as §1

[2] = test system: Streptococcus faecium MD8b; experiment: as above; format: cell-based; conditions: Enterococcus faecium, Muller-Hinton agar, 37° C., 18 hours, read-out: MIC
In short: as §1

Escherichia coli 078 = experiment: as above; format: cell-based; conditions: Escherichia coli 078; Muller-Hinton agar, 37° C., 18 hours; read-out: MIC
In short: as §1

[3] = test system: Streptococcus pyogenes 308A; experiment: as above; format: cell-based; conditions: Muller-Hinton agar, 37° C., 18 hours, read-out: MIC
In short: as §1

Escherichia coli 1507E = experiment: as above; format: cell-based; conditions: Muller-Hinton agar, 37° C.
In short: as §1

[4] = test system: Pseudomonas aeruginosa 1592E; experiment: as above; format: cell-based; conditions: Muller-Hinton agar, 37° C., 18 hours, read-out: MIC
In short: as §1

[5] = test system: Staphylococcus aureus 285; experiment: as above; format: cell-based; conditions: Staphylococcus aureus, 285, 18 h, Staphylococcus aureus 285; Muller-Hinton agar, 37° C., 18 hours; read-out: MIC
In short: as §1

Enterobacter cloacae P99 = experiment: as above; format: cell-based; conditions: Enterobacter cloacae, P99, 18 h
In short: (§2)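 Agar-incorporation MIC: Muller-Hinton medium, 10^7 C.F.U./ml inoculum, 18 h incubation at 37° C., growth checked by eye; ciprofloxacin reference.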

Escherichia coli DC0 = experiment: as above; format: cell-based; conditions: Muller-Hinton agar, 37° C., 18 hours, read-out: MIC
In short: as §1

[6] = test system: Staphylococcus aureus SG511; experiment: as above; format: cell-based; conditions: Staphylococcus aureus SG511; Muller-Hinton agar, 37° C., 18 hours; read-out: MIC
In short: as §1

[7] = test system: Klebsiella aerogenes 1522E; experiment: as above; format: cell-based; conditions: Klebsiella aerogenes, 1522E, 18 h, Klebsiella aerogenes 1522E; Muller-Hinton agar, 37° C., 18 hours; read-out: MIC
In short: as §1

[8] = test system: Streptococcus pyogenes 77A; experiment: as above; format: cell-based; conditions: Streptococcus pyogenes 77A; Muller-Hinton agar, 37° C., 18 hours; read-out: MIC
In short: as §1

Klebsiella oxytoca 1082E = experiment: as above; format: cell-based; conditions: Klebsiella oxytoca 1082E; Muller-Hinton agar, 37° C., 18 hours; read-out: MIC
In short: as §1

Salmonella typhimurium = experiment: as above; format: cell-based; conditions: Salmonella enterica; Salmonella typhimurium; Muller-Hinton agar, 37° C., 18 hours; read-out: MIC
In short: as §1

Escherichia coli TEM = experiment: as above; format: cell-based; conditions: Escherichia coli, 18 h, Muller-Hinton agar, 37° C.
In short: as §2

[9] = test system: Pseudomonas aeruginosa 1771M; experiment: as above; format: cell-based; conditions: Pseudomonas aeruginosa, 1771M, 18 h, Muller-Hinton agar, 37° C.
In short: as §1

[10] = test system: Staphylococcus aureus 503; experiment: as above; format: cell-based; conditions: Staphylococcus aureus 503; Muller-Hinton agar, 37° C., 18 hours; read-out: MIC
In short: as §1

[11] = test system: Pseudomonas aeruginosa 1771; experiment: as above; format: cell-based; conditions: Pseudomonas aeruginosa 1771; Muller-Hinton agar, 37° C., 18 hours; read-out: MIC
In short: as §1

[12] = test system: Enterobacter cloacae 1321E; experiment: as above; format: cell-based
In short: as §1

P. mirabilis = experiment: Treatment Effect on the Systemic Infection; format: in vivo, NMRI mice; conditions: Proteus mirabilis, in Mus musculus, 240 h
Procedure: (§3) 10 fold of the pathogens which lead to 100% lethality were injected intraperitoneally to male and female NMRI mice weighing 18 to 20 g. Immediately and 4 hours after injection, the dose of test compounds, which was determined by two-fold serial dilution method, was administered orally or subcutaneously to the mice, and on the 10th day, the effect was evaluated in terms of ED50 calculated from the number of survived mice by the probit analysis.

Acute Toxicity Test = conditions: mouse, in vivo, ICR mice, 14th day
Procedure: Test compounds were administered to ICR mice weighing 20 to 25 g. On 14th day, LD50 was calculated from the number of survived mice by the probit analysis.

S. aureus 17740 = experiment: Treatment Effect on the Systemic Infection; format: in vivo, NMRI mice; conditions: 240 h
Procedure: as §3

[13] = Enterobacter cloacae 1321E, Muller-Hinton agar, 37° C., 18 hours, read-out: MIC
[14] = P. mirabilis, oral, immediately and 4 hours after infection, survival on 10th day, read-out: ED50 Oral Administration
[15] = sc, P. mirabilis, subcutaneous, immediately and 4 hours after infection, survival on 10th day, read-out: ED50 Subcutaneous Injection
[16] = ip, read-out: Acute Toxicity LD50, Peritomeo Injection
[17] = oral, read-out: Acute Toxicity LD50, Oral Administration
[18] = Staphylococcus aureus, in Mus musculus, S. aureus 17740, oral, immediately and 4 hours after infection, survival on 10th day, read-out: ED50 Oral Administration
[19] = Staphylococcus aureus, in Mus musculus, sc, S. aureus 17740, subcutaneous, immediately and 4 hours after infection, survival on 10th day, read-out: ED50 Subcutaneous Injection

## O=C(C[N+](=O)[O-])c1cn(C2CC2)c2c(Cl)c(N3CC4=C(CNC4)C3)c(F)cc2c1=O [Example 34, 1-cyclopropyl-6-fluoro-8-chloro-7-(3,7-diazabicyclo[3.3.0]oct-1,5-en-3-yl)-3-(2-nitroacetyl)-1,4-dihydro-4-oxoquinoline hydrochloride]
[1]
  MIC: 0.391 µg/mL
Escherichia coli DC2
  MIC: 0.098 µg/mL
[2]
  MIC: 0.098 µg/mL
Escherichia coli 078
  MIC: < 0.002 µg/mL
[3]
  MIC: 0.391 µg/mL
Escherichia coli 1507E; Escherichia coli, 1507E, 18 h
  MIC: 0.007 µg/mL
[4]
  MIC: 0.391 µg/mL
[5]
  MIC: 0.049 µg/mL
Enterobacter cloacae P99
  MIC: 0.007 µg/mL
Escherichia coli DC0
  MIC: 0.195 µg/mL
[6]
  MIC: 0.025 µg/mL
[7]
  MIC: 0.013 µg/mL
[8]
  MIC: 0.098 µg/mL
Klebsiella oxytoca 1082E
  MIC: < 0.002 µg/mL
Salmonella typhimurium
  MIC: 0.004 µg/mL
Escherichia coli TEM
  MIC: 0.007 µg/mL
[9]
  MIC: 0.098 µg/mL
[10]
  MIC: 0.098 µg/mL
[11]
  MIC: 0.195 µg/mL
[12]; [13]
  MIC: 0.049 µg/mL
P. mirabilis; [14]
  ED50: 0.41 mg/kg
P. mirabilis; [15]
  ED50: 0.16 mg/kg
Acute Toxicity Test; [16]
  LD50 at 336 h: 620 mg/kg
Acute Toxicity Test; [17]
  LD50 at 336 h: 4000 mg/kg

## O=C(O)c1cn(C2CC2)c2cc(N3CCNCC3)c(F)cc2c1=O [Ciprofloxacin, reference compound]
S. aureus 17740; Staphylococcus aureus, 17740, in Mus musculus, po, read-out: ED50 Oral Administration
  ED50: > 200 mg/kg
P. mirabilis; po, read-out: ED50 Oral Administration
  ED50: 0.82 mg/kg
P. mirabilis; sc, read-out: ED50 Subcutaneous Injection
  ED50: 0.16 mg/kg

## CNCC1=CCN(c2c(F)cc3c(=O)c(C(=O)C[N+](=O)[O-])cn(C4CC4)c3c2Cl)C1 [Example 16, 1-cyclopropyl-6-fluoro-8-chloro-7-(3-methylaminomethyl-2,5-dihydropyrrol-1-yl)-3-(2-nitroacetyl)-1,4-dihydro-4-oxoquinoline hydrochloride]
[1]
  MIC: 0.781 µg/mL
Escherichia coli DC2
  MIC: 0.013 µg/mL
[2]
  MIC: 0.013 µg/mL
Escherichia coli 078
  MIC: 0.004 µg/mL
[3]
  MIC: 0.098 µg/mL
Escherichia coli 1507E; Escherichia coli, 1507E, 18 h
  MIC: 0.013 µg/mL
[4]
  MIC: 0.781 µg/mL
[5]
  MIC: 0.004 µg/mL
Enterobacter cloacae P99
  MIC: 0.007 µg/mL
Escherichia coli DC0
  MIC: 0.098 µg/mL
[6]
  MIC: 0.004 µg/mL
[7]
  MIC: 0.013 µg/mL
[8]
  MIC: 0.025 µg/mL
Klebsiella oxytoca 1082E
  MIC: 0.007 µg/mL
Salmonella typhimurium
  MIC: < 0.02 µg/mL
Escherichia coli TEM
  MIC: 0.004 µg/mL
[9]
  MIC: 0.195 µg/mL
[10]
  MIC: < 0.002 µg/mL
[11]
  MIC: 0.391 µg/mL
[12]; Enterobacter cloacae, 1321E, 18 h
  MIC: 0.007 µg/mL
S. aureus 17740; [18]
  ED50: 49.7 mg/kg
S. aureus 17740; [19]
  ED50: 97.6 mg/kg
Acute Toxicity Test; [16]
  LD50 at 336 h: 605 mg/kg
Acute Toxicity Test; [17]
  LD50 at 336 h: 3800 mg/kg

## N[C@H]1CCN(c2c(F)cc3c(=O)c(C(=O)C[N+](=O)[O-])cn(C4CC4)c3c2Cl)C1 [Example 13, 1-cyclopropyl-6-fluoro-8-chloro-7-(3-3S-aminopyrrolidin-1-yl)-3-(2-nitroacetyl)-1,4-dihydro-4-oxoquinoline hydrochloride]
[1]
  MIC: 0.195 µg/mL
Escherichia coli DC2
  MIC: 0.013 µg/mL
[2]
  MIC: 0.195 µg/mL
Escherichia coli 078
  MIC: < 0.002 µg/mL
[3]
  MIC: 0.195 µg/mL
Escherichia coli 1507E; 18 hours, read-out: MIC
  MIC: 0.004 µg/mL
[4]
  MIC: 0.195 µg/mL
[5]
  MIC: 0.025 µg/mL
Enterobacter cloacae P99
  MIC: 0.004 µg/mL
Escherichia coli DC0
  MIC: 0.049 µg/mL
[6]
  MIC: 0.025 µg/mL
[7]
  MIC: 0.013 µg/mL
[8]
  MIC: 0.195 µg/mL
Klebsiella oxytoca 1082E
  MIC: < 0.002 µg/mL
Salmonella typhimurium
  MIC: < 0.002 µg/mL
Escherichia coli TEM
  MIC: < 0.002 µg/mL
[9]
  MIC: 0.049 µg/mL
[10]
  MIC: 0.049 µg/mL
[11]
  MIC: 0.195 µg/mL
[12]; [13]
  MIC: < 0.002 µg/mL
S. aureus 17740; [18]
  ED50: 128 mg/kg
S. aureus 17740; [19]
  ED50: 16.8 mg/kg
P. mirabilis; [14]
  ED50: 0.21 mg/kg
P. mirabilis; [15]
  ED50: 0.08 mg/kg
Acute Toxicity Test; [16]
  LD50 at 336 h: 580 mg/kg
Acute Toxicity Test; [17]
  LD50 at 336 h: 3800 mg/kg

Reference: patent US5409933A, “Quinoline derivatives and processes for preparing the same” (priority 1993, dated 1995)
